Laboratory results as given in US9180118B2, “Thiadiazolidinone derivatives” (University of Rochester, priority 2006, dated 2015).
pIC50: −log10 of the molar value.

Tests used:
[1] = tested on: primary CLL specimens; experiment: Viability of primary CLL specimens, Annexin V/7-AAD; type: cell-based; details: Homo sapiens, 24 h; read-out: mean viability relative to untreated controls
[2] = tested on: CD34+CD38− bcCML cells; type: cell-based; details: Homo sapiens, 24 h
[3] = type: cell-based; details: human, CD34+CD38− cells gated from healthy (normal) specimens
[4] = tested on: bcCML progenitor cells; experiment: Methylcellulose colony assay, bcCML; type: cell-based, human; details: 20 μM TDZD-8, 18 hours before plating, n=3
Description: Cells were then plated at 50,000 cells/ml in Methocult™ GF H4534 (1% methylcellulose in IMDM, 30% FBS, 1% BSA, 10^−4M 2-mercaptoethanol, 2 mM L-glutamine, 50 ng/ml rh stem cell factor, 10 ng/ml rh GM-CSF, 10 ng/ml rh IL-3-Stem Cell Technologies, Vancouver, B.C.) supplemented with 3 units/ml of erythropoietin and 50 ng/ml G-CSF (R&D Systems, Minneapolis, Minn.). Colonies were scored after 10-14 days of culture.

[5] = tested on: pro-caspases 3, 8 or PARP; experiment: Immunoblot for caspase-dependent apoptotic events; type: cell-based, human; details: TDZD-8 treated cells, data not shown
Description: Immunoblots. Cells were prepared and analyzed as previously described.^35 Membrane fractions were prepared using mem-PER eukaryotic membrane protein extraction kit as per manufacturer's instructions (Pierce; Rockford, Ill.). Blots were probed with phospho-PKC (pan) (beta II; Ser660), phospho-PKCalpha/betaII (Thr638/641), total PKCα, PKCβ and FLT3 (Santa Cruz Biotechnology, Calif.), Caspase-3 (Cell Signaling technologies; Danvers, Mass.); caspase-8 and PARP (BD bioscience), cleaved PARP (abcam) or anti-actin (AC-15; Sigma) antibodies.

[6] = tested on: All other tumor lines; experiment: NCI-60 screen, other lines; type: cell-based; details: Homo sapiens; NCI-60, non-hematologic lines; read-out: concentration up to which no growth inhibition was shown
Excerpt: In contrast the cell viability for normal specimens was 79.5% (n=13).

[7] = biological target: ABL1 (Homo sapiens, UniProt P00519); experiment: Kinase assay; type: biochemical
Description: (§1) Kinase Assays: Single point and titration assays are performed using protocols (or essentially using protocols) know in the art for kinase activity profiling against a battery of kinase targets, including, for example, those specifically delineated herein. Such assays include, for example, those available from commercial sources, contract research laboratories, and the like.

[8] = biological target: AKT1 (PKB alpha) (Homo sapiens, UniProt P31749); experiment: Kinase assay; type: biochemical
Description: as §1

[9] = biological target: BTK (Homo sapiens, UniProt Q06187); experiment: Kinase assay; type: biochemical
Description: as §1

[10] = biological target: CHEK1 (CHK1) (Homo sapiens, UniProt O14757); experiment: Kinase assay; type: biochemical
Description: as §1

[11] = biological target: CSNK2A1 (CK2 alpha 1) (Homo sapiens, UniProt P68400); experiment: Kinase assay; type: biochemical
Sequence of CSNK2A1 (CK2 alpha 1) (P68400 whole entry): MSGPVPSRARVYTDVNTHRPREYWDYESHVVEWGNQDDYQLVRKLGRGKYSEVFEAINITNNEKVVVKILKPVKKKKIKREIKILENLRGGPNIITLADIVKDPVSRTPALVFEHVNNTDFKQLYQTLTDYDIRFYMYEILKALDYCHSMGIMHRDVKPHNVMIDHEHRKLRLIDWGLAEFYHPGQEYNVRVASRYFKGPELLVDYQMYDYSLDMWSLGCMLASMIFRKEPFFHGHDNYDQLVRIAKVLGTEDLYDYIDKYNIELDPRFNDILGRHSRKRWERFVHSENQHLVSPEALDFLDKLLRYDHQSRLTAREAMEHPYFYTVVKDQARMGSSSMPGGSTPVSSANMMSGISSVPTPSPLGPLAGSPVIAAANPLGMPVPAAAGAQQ
Description: as §1

[12] = biological target: EPHA2 (Homo sapiens, UniProt P29317); experiment: Kinase assay; type: biochemical
Description: as §1

[13] = biological target: ERBB2 (HER2) (Homo sapiens, UniProt P04626); experiment: Kinase assay; type: biochemical
Sequence of ERBB2 (HER2) (P04626 23-1255): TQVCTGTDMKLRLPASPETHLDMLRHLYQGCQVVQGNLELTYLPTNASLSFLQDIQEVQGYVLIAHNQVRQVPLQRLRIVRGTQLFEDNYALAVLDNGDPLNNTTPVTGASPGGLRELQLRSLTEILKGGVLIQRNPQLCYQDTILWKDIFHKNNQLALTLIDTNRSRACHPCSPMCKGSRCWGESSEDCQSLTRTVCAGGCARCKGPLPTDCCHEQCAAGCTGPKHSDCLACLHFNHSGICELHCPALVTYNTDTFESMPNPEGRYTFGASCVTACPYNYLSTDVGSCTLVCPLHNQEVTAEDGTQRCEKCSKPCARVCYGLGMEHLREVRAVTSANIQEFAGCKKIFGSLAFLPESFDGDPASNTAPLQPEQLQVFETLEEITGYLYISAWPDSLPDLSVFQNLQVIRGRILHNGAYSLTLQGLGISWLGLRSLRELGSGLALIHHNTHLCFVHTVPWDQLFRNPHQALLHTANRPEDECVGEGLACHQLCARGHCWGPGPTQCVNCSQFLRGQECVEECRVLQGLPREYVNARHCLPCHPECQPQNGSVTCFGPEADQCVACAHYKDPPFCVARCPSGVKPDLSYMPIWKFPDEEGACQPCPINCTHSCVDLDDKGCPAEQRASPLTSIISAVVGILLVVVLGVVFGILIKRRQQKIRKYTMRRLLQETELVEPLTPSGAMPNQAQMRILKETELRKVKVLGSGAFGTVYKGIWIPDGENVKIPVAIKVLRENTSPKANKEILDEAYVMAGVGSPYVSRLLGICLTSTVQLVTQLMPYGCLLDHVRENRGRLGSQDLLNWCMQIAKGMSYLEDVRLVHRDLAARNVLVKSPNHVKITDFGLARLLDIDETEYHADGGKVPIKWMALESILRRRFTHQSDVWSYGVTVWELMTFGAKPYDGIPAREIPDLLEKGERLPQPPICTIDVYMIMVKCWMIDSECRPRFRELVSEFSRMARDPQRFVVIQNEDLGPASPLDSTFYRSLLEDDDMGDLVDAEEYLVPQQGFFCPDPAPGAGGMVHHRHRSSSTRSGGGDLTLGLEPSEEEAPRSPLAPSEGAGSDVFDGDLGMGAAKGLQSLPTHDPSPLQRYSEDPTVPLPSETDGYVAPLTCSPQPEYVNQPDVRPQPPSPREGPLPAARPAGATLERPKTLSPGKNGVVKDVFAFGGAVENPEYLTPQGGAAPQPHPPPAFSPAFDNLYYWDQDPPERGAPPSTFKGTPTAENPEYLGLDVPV
Description: as §1

[14] = biological target: INSR (Homo sapiens, UniProt P06213); experiment: Kinase assay; type: biochemical
Description: as §1

[15] = biological target: JAK3 (Homo sapiens, UniProt P52333); experiment: Kinase assay; type: biochemical
Description: as §1

[16] = biological target: KDR (VEGFR2) (Homo sapiens, UniProt P35968); experiment: Kinase assay; type: biochemical
Description: as §1

[17] = biological target: KIT (Homo sapiens, UniProt P10721); experiment: Kinase assay; type: biochemical
Sequence of KIT (P10721 26-976): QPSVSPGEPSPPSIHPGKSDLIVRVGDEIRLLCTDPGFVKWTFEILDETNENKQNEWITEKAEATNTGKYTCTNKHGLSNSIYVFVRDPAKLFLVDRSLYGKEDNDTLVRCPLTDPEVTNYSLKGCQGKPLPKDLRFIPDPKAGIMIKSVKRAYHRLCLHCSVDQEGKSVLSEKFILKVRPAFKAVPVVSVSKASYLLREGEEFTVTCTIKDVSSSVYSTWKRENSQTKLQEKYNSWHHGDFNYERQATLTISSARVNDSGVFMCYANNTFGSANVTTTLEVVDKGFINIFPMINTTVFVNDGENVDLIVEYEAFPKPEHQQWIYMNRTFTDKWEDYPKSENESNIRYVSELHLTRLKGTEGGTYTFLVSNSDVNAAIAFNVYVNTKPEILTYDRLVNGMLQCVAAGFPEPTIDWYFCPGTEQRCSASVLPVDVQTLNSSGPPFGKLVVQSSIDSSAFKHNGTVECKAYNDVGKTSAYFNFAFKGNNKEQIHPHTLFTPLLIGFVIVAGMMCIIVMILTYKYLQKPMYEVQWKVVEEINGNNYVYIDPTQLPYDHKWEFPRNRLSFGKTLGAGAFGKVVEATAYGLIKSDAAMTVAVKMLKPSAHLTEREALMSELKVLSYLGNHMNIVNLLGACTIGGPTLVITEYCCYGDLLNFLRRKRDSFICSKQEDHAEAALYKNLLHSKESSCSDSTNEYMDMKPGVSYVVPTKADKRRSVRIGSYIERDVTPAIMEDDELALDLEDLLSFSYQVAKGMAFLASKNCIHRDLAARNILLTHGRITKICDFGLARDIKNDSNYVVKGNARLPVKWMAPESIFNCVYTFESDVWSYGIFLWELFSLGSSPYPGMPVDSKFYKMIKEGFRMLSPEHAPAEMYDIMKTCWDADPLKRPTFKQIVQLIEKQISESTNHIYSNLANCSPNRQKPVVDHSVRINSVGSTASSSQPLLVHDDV
Description: as §1

[18] = biological target: LCK (Homo sapiens, UniProt P06239); experiment: Kinase assay; type: biochemical
Description: as §1

[19] = biological target: MAP2K1 (MEK1) (Homo sapiens, UniProt Q02750); experiment: Kinase assay; type: biochemical
Sequence of MAP2K1 (MEK1) (Q02750 whole entry): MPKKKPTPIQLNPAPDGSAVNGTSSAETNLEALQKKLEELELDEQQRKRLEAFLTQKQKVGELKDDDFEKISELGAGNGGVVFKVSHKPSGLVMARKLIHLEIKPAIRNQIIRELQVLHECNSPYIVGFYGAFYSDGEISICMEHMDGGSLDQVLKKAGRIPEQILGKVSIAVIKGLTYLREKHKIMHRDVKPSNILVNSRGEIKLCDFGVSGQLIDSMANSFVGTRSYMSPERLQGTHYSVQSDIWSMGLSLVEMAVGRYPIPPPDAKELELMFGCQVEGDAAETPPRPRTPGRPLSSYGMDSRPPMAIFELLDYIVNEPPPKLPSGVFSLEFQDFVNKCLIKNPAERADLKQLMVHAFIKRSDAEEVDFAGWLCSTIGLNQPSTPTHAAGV
Description: as §1

[20] = biological target: MAP4K4 (HGK) (Homo sapiens, UniProt O95819); experiment: Kinase assay; type: biochemical
Description: as §1

[21] = biological target: MAPKAPK2 (Homo sapiens, UniProt P49137); experiment: Kinase assay; type: biochemical
Sequence of MAPKAPK2 (P49137 whole entry): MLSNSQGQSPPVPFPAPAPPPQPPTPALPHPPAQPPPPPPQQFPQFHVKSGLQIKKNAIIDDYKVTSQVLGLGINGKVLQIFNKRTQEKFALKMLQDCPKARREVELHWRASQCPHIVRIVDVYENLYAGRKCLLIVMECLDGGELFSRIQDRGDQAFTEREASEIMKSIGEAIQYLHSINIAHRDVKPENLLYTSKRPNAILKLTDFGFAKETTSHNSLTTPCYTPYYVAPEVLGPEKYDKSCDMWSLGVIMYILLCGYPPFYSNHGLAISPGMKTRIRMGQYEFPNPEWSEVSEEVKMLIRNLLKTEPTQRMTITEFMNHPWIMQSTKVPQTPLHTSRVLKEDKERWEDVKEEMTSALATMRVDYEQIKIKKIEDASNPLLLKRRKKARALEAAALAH
Description: as §1

[22] = biological target: NTRK1 (TRKA) (Homo sapiens, UniProt P04629); experiment: Kinase assay; type: biochemical
Description: as §1

[23] = biological target: PDGFRB (PDGFR beta) (Homo sapiens, UniProt P09619); experiment: Kinase assay; type: biochemical
Sequence of PDGFRB (PDGFR beta) (P09619 33-1106): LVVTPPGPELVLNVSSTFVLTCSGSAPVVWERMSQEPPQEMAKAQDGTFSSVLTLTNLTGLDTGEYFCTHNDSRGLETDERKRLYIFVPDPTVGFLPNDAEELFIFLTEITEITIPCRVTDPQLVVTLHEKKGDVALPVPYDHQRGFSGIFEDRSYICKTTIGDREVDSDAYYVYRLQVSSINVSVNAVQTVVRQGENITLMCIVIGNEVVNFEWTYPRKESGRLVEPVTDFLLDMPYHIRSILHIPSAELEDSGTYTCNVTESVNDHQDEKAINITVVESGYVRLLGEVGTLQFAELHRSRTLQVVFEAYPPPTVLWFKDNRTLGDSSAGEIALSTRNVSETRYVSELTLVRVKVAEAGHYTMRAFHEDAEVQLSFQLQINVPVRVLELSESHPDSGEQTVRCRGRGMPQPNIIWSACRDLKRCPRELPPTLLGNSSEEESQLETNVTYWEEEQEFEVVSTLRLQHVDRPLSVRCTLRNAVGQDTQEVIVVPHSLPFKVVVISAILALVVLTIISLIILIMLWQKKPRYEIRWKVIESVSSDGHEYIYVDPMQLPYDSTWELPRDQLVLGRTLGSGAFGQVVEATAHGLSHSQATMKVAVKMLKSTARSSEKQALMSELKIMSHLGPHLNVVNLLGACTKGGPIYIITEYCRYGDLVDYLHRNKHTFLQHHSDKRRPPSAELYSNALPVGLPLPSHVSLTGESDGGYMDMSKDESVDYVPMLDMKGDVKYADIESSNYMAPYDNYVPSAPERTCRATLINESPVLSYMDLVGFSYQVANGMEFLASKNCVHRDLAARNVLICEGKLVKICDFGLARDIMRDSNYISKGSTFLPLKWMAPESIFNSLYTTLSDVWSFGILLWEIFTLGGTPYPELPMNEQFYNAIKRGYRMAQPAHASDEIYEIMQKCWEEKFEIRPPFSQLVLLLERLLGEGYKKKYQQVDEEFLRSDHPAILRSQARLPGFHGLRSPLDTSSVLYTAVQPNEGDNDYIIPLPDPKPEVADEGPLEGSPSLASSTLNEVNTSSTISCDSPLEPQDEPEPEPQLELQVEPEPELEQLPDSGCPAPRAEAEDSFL
Description: as §1

[24] = biological target: PIM1 (Homo sapiens, UniProt P11309); experiment: Kinase assay; type: biochemical
Description: as §1

[25] = biological target: PRKACA (PKA) (Homo sapiens, UniProt P17612); experiment: Kinase assay; type: biochemical
Description: as §1

[26] = biological target: PRKCA (PKC alpha) (Homo sapiens, UniProt P17252); experiment: Kinase assay; type: biochemical
Description: as §1

[27] = biological target: PRKCB2 (PKC beta II) (Homo sapiens, UniProt P05771); experiment: Kinase assay; type: biochemical
Description: as §1

[28] = biological target: PRKCN (PKD3) (Homo sapiens, UniProt O94806); experiment: Kinase assay; type: biochemical
Description: as §1

[29] = biological target: RET (Homo sapiens, UniProt P07949); experiment: Kinase assay; type: biochemical
Description: as §1

[30] = biological target: ROCK1 (Homo sapiens, UniProt Q13464); experiment: Kinase assay; type: biochemical
Description: as §1

[31] = biological target: SRC (Homo sapiens, UniProt P12931); experiment: Kinase assay; type: biochemical
Sequence of SRC (P12931 whole entry, species assumed): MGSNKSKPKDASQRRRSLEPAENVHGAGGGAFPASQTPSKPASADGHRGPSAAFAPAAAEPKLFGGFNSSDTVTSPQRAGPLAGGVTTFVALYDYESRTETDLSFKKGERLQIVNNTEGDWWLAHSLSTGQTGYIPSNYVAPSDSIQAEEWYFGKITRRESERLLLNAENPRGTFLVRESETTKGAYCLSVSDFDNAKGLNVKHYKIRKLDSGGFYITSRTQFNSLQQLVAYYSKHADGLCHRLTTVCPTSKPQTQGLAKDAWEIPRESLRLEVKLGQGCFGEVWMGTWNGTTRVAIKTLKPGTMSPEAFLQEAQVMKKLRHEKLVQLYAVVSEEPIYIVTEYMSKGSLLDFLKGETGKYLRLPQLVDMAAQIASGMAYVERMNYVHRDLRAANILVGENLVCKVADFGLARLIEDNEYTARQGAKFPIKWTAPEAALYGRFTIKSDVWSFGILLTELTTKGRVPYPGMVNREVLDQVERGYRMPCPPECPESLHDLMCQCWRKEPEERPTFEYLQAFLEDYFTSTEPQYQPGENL
Description: as §1

[32] = biological target: STK6 (Aurora A) (Homo sapiens, UniProt O14965); experiment: Kinase assay; type: biochemical
Description: as §1

[33] = biological target: CDK1/cyclin B (Homo sapiens, UniProt P06493); details: reported; cited from earlier work

Question: With `Cn1sc(=O)n(Cc2ccccc2)c1=O` [TDZD-8, 4-benzyl-2-methyl-1,2,4-thiadiazolidine-3,5-dione] as the molecule, how does the viability at 20 µM [1] read?
Answer: 7.2%

Question: And the viability at 20 µM [2]?
Answer: 2.8%

Question: What about the viability at 24 h, 20 μM [3] of the same molecule?
Answer: 80.2%

Question: What about the “CFU, normalized to untreated controls” value [4] of the same molecule?
Answer: 16.1%

Question: What about the “cleavage of pro-caspases 3, 8 or PARP” value [5] of the same molecule?
Answer: no cleavage of pro-caspases 3, 8 or PARP was detected

Question: And the pIC50 [6]?
Answer: < 4.00

Question: And the inhibition at 20 µM [7]?
Answer: 70%

Question: What about the inhibition at 20 µM [8] of the same molecule?
Answer: 102%

Question: What about the inhibition at 20 µM [9] of the same molecule?
Answer: 72%

Question: And the inhibition at 20 µM [10]?
Answer: 87%

Question: What about the inhibition at 20 µM [11] of the same molecule?
Answer: 27%

Question: And the inhibition at 20 µM [12]?
Answer: 3%

Question: And the inhibition at 20 µM [13]?
Answer: 12%

Question: What about the inhibition at 20 µM [14] of the same molecule?
Answer: 9%

Question: And the inhibition at 20 µM [15]?
Answer: -1%

Question: What about the inhibition at 20 µM [16] of the same molecule?
Answer: 100%

Question: And the inhibition at 20 µM [17]?
Answer: -6%

Question: What about the “% Inhibition mean” value ([17]; TDZD-8 20 μM) of the same molecule?
Answer: little to no inhibition

Question: And the inhibition at 20 µM [18]?
Answer: -9%

Question: And the inhibition at 20 µM [19]?
Answer: 80%

Question: What about the inhibition at 20 µM [20] of the same molecule?
Answer: 99%

Question: What about the inhibition at 20 µM [21] of the same molecule?
Answer: 99%

Question: What about the inhibition at 20 µM [22] of the same molecule?
Answer: -9%

Question: What about the inhibition at 20 µM [23] of the same molecule?
Answer: -4%

Question: And the “% Inhibition mean” value ([23]; TDZD-8 20 μM)?
Answer: little to no inhibition

Question: And the inhibition at 20 µM [24]?
Answer: 95%

Question: And the inhibition at 20 µM [25]?
Answer: 18%

Question: And the inhibition at 20 µM [26]?
Answer: 102%

Question: What about the inhibition at 20 µM [27] of the same molecule?
Answer: 99%

Question: What about the inhibition at 20 µM [28] of the same molecule?
Answer: 94%

Question: And the inhibition at 20 µM [29]?
Answer: 34%

Question: And the inhibition at 20 µM [30]?
Answer: 113%

Question: And the inhibition at 20 µM [31]?
Answer: 27%

Question: And the “% Inhibition mean” value ([31]; TDZD-8 20 μM)?
Answer: little to no inhibition

Question: And the inhibition at 20 µM [32]?
Answer: 99%

Question: What about the pIC50 [33] of the same molecule?
Answer: < 4.00
